Measurements published in US11384063B2, “Modulators of estrogen receptor proteolysis and associated methods of use” (Arvinas Operations, Inc., priority 2017, dated 2022).
Like-named read-outs stand apart in the source and are kept apart here.

Tests used:
Type in all cases: cell-based
[1] = molecular target: T1, ERα (Homo sapiens, UniProt P03372); assay: Estrogen receptor-alpha (ERα) degradation assay in MCF-7 cells using western blot; set-up: assessed for their activity in degrading ERα in MCF-7 cells via western blot; endogenous in cells; host or cells: MCF7 cells; conditions: ER-alpha degradation, MCF7 cells, 3 days of incubation
T1 sequence (P03372 1-595): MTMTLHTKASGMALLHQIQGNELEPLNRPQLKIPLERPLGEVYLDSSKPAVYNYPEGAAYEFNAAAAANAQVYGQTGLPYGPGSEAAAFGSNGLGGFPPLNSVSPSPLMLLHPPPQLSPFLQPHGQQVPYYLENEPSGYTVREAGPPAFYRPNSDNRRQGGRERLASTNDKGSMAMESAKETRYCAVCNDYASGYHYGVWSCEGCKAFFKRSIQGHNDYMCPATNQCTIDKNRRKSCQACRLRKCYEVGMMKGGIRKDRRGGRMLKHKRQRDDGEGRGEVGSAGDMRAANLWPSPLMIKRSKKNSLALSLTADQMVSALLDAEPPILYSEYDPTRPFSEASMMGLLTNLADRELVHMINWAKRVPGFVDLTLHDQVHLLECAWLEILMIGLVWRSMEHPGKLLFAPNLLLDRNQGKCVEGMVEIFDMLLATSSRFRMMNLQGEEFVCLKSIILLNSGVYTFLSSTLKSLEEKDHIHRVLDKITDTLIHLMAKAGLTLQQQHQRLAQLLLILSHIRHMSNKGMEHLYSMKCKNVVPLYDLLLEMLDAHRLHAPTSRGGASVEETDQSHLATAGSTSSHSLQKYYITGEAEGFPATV
Method: Compounds prepared in this application were also analyzed for the degradation of ERα in MCF7 and T47D cells.
Estrogen Receptor-Alpha (ERα) Degradation Assay in MCF-7 Cells Using Western Blot Method for Table 4.
The exemplary novel ERα degraders were assessed for their activity in degrading ERα in MCF-7 cells via western blot. The assay was carried out in the presence of 10% fetal bovine serum (FBS) or high percentage of human or mouse serum.
MCF7 cells were grown in DMEM/F12 with 10% fetal bovine serum and seeded at 24,000 cells per well in 100 μl into 96-well clear tissue culture plates. The following day, the cells were treated with PROTACs in a […] concentration curve with 100 nM being the top concentration and serial dilutions to make the other concentrations (30 nM, 10 nM, 3 nM, 1 nM, and 0.3 nM). At all concentrations, 0.01% DMSO is the final concentration in the well. The following day, the plates are aspirated, washed with 50 μl of cold PBS. The cells are lysed with 50 μl/well 4° C. Cell Lysis Buffer (Catalog #9803; Cell Signaling Technology, Danvers, Mass.) (20 mM Tris-HCL (pH 7.5), 150 mM NaCl, 1 mM […], 1 mM EGTA, 1% Triton, 2.5 mM sodium pyrophosphate, 1 mM B-glycerophosphate, 1 mM sodium vanadate, 1 ug/ml leupeptin). Lysates were clarified at 16,000×g for 10 minutes, and 2 μg of protein was subjected to SDS-PAGE analysis and followed by immunoblotting according to standard protocols. The antibodies used were ERα (Cell Signaling Technologies Catalog #8644), and Tubulin (Sigma Catalog #T9026; St. Louis, Mo.). Detection reagents were Clarity Western ECL substrate (Bio-Rad Catalog #170-5060; Hercules, Calif.).
Alternatively, MCF7 cells were grown in DMEM/F12 with 10% fetal bovine serum and seeded at 24,000 cells per well in 500 μl in 24-well clear tissue culture plates. The following day, the cells were treated with PROTACs in a 5-point concentration curve (100 nM, 33 nM, 11 nM, 3.7 nM, and 1.2 nM) in the presence of 0.01% DMSO. After 72 hours, the wells are aspirated and washed with 500 μl of PBS. The cells are lysed with 100 μl/well 4° C. Cell Lysis Buffer (Catalog #9803; Cell Signaling Technology, Danvers, M A) (20 mM Tris-HCL (pH 7.5), 150 mM NaCl, 1 mM Na2EDTA, 1 mM EGTA, 1% Triton, 2.5 mM sodium pyrophosphate, 1 mM B-glycerophosphate, 1 mM sodium vanadate, 1 ug/ml leupeptin). Lysates were clarified at 16,000×g for 10 minutes, and 2 μg of protein was subjected to SDS-PAGE analysis and followed by immunoblotting according to standard protocols. The antibodies used were ER(X (Cell Signaling Technologies Catalog #8644), and Tubulin (Sigma Catalog #T9026; St. Louis, Mo.). Detection reagents were Clarity Western ECL substrate (Bio-Rad Catalog #170-5060; Hercules, Calif.).

[2] = molecular target: T1, ERα; assay: ERE luciferase reporter gene assay in T47D-KBluc cells (target engagement); set-up: T47D human breast cancer cells stably transfected with estrogen responsive element/promoter/luciferase reporter gene; host or cells: T47D-KBluc cells; conditions: 10% FBS, 24 hours
Method in brief: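 PROTACs were tested at 12 concentrations from 300 nM down to 2 pM in 3-fold steps for 24 h on T47D-KBluc cells with a stable ERE-driven luciferase. Medium was RPMI with 10% FBS, measured at 10 pM estrogen. IC50 came from luminescence after lysis, in duplicate.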

[3] = molecular target: T1, ERα; assay: Estrogen receptor-alpha (ERα) degradation assay in MCF7 cells using In-Cell Western assay; set-up: assessed for their activity in degrading ERα in MCF-7 cells via western blot; endogenous in cells; host or cells: MCF7 cells; conditions: ER-alpha degradation in MCF7 cells, 5 days of incubation
Method in brief: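 MCF7 cells treated 3 or 5 days at 37 °C with 11-point 3-fold dilutions from 1 μM final top. Fixed cells immunostained for ERα and tubulin, read by infrared imaging at 700/800 nm. ERα normalized to tubulin then to DMSO vehicle; DC50 and Dmax from 4-parameter curve fit.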

[4] = Table 2 VHL centric PROTACs, read-out: IC50
[5] = Table 3 cereblon centric PROTACs, read-out: ER-α Luciferase IC50

Row | SMILES | DC50 [1] | Dmax [1] | IC50 [2, 4] | DC50 [3] | Dmax [3] | IC50 [2, 5]
1 | Cc1ncsc1-c1ccc(CNC(=O)[C@@H]2C[C@@H](O)CN2C(=O)[C@@H](NC(=O)COCCOCCN2CCC(c3ccc(Oc4c(-c5ccc(F)cc5)sc5cc(O)ccc45)cc3)CC2)C(C)(C)C)cc1 [Compound 135, (2S,4R)-1-[(2S)-2-[2-(2-[2-[4-(4-[[2-(4-fluorophenyl)-6-hydroxy-1-benzothiophen-3-yl]oxy]phenyl)piperidin-1-yl]ethoxy]ethoxy)acetamido]-3,3-dimethylbutanoyl]-4-hydroxy-N-[[4-(4-methyl-1,3-thiazol-5-yl)phenyl]methyl]pyrrolidine-2-carboxamide] | < 1 nM | > 75% | 0.8 nM | – | – | –
2 | C[C@H](NC(=O)[C@@H]1C[C@@H](O)CN1C(=O)[C@@H](NC(=O)Cc1ccc(-c2ccn(CCOc3ccc(Oc4c(-c5ccc(F)cc5)sc5cc(O)ccc45)cc3)n2)cc1)C(C)(C)C)c1ccc(Cl)cc1 [Compound 150, (2S,4R)-N-[(1S)-1-(4-chlorophenyl)ethyl]-1-[(2S)-2-[2-(4-[1-[2-[4-[[2(4-fluorophenyl)-6-hydroxy-1-benzothiophen-3-yl]oxy]phenoxy)ethyl]-1H-pyrazol-3-yl]phenyl)acetamido]-3,3-dimethylbutanoyl]-4-hydroxypyrrolidine-2-carboxamide] | 10 to 100 nM | > 75% | 17 nM | – | – | –
3 | Cc1ncoc1-c1ccc([C@H](C)NC(=O)[C@@H]2C[C@@H](O)CN2C(=O)[C@@H](NC(=O)COCCOCCOCCOc2ccc(Oc3c(-c4ccc(Br)cc4)sc4cc(O)ccc34)cc2)C(C)(C)C)cc1 [Compound 127, (2S,4R)-1-((S)-14-(4-(2-(4-bromophenyl)-6-hydroxybenzo[b]thiophen-3-yloxy)phenoxy)-2-tert-butyl-4-oxo-6,9,12-trioxa-3-azatetradecane)-4-hydroxy-N-((S)-1-(4-(4-methyloxazol-5-yl)phenyl)ethyl)pyrrolidine-2-carboxamide] | < 1 nM | > 75% | 0.2 nM | – | – | –
4 | Cc1ncsc1-c1ccc(CNC(=O)[C@@H]2C[C@@H](O)CN2C(=O)[C@@H](NC(=O)Cc2ccc(-c3ccn(CCOc4ccc(Oc5c(-c6ccc(F)cc6)sc6cc(O)ccc56)cc4)n3)cc2)C(C)(C)C)cc1 [Compound 121, (2S,4R)-1-[(2S)-2-[2-(4-[1-[2-(4-[[2-(4-fluorophenyl)-6-hydroxy-1-benzothiophen-3-yl]oxy]phenoxy)ethyl]-1H-pyrazol-3-yl]phenyl)acetamido]-3,3-dimethylbutanoyl]-4-hydroxy-N-[[4-(4-methyl-1,3-thiazol-5-yl)phenyl]methyl]pyrrolidine-2-carboxamide] | 1 to 10 nM | > 75% | 1 nM | – | – | –
5 | Cc1ncsc1-c1ccc(CNC(=O)[C@@H]2C[C@@H](O)CN2C(=O)[C@@H](NC(=O)COCCOCCn2ccc(-c3ccc(Oc4c(-c5ccc(F)cc5)sc5cc(O)ccc45)cc3)cc2=O)C(C)(C)C)cc1 [Compound 134] | 1 to 10 nM | > 75% | 2.6 nM | – | – | –
6 | O=C1CCC(N2Cc3cc(CCCCN4CCCN(CCOc5ccc(Oc6c(-c7ccc(Br)cc7)sc7cc(O)ccc67)cc5)CC4)ccc3C2=O)C(=O)N1 (stereo not drawn) [Compound 199, 3-[5-[4-[4-[2-[4-[2-(4-bromophenyl)-6-hydroxybenzothiophen-3-yl]oxyphenoxy]ethyl]-1,4-diazepan-1-yl]butyl]-1-oxo-isoindolin-2-yl]piperidine-2,6-dione] | – | – | – | 1 to 10 nM | 50 to 75% | 0.82 nM
7 | O=C1CCC(N2Cc3cc(N4CCN(CCCOc5ccc(Oc6c(-c7ccc(F)cc7)sc7cc(O)ccc67)cc5)CC4)ccc3C2=O)C(=O)N1 (stereo not drawn) [Compound 220, 3-[5-[4-[3-[4-[2(4-fluorophenyl)-6-hydroxybenzothiophen-3-yl]oxyphenoxy]propyl]piperazin-1-yl]-1-oxo-isoindolin-2-yl]piperidine-2,6-dione] | – | – | – | 1 to 10 nM | 50 to 75% | 1.5 nM
8 | O=C1CCC(N2Cc3nc(N4CCN(CC5CCN(c6ccc(Oc7c(-c8ccc(Br)cc8)sc8cc(O)ccc78)cc6)CC5)CC4)ccc3C2=O)C(=O)N1 (stereo not drawn) [Compound 235, 3-[2-[4-[[1-[4-[2-(4-bromophenyl)-6-hydroxy-benzothiophen-3-yl]oxyphenyl]-4-piperidyl]methyl]piperazin-1-yl]-5-oxo-7H-pyrrolo[3,4-b]pyridin-6-yl]piperidine-2,6-dione] | – | – | – | 1 to 10 nM | > 75% | 6.9 nM
9 | O=C1CCC(N2C(=O)c3ccc(N4CCN(CC5CCN(c6ccc(Oc7c(-c8ccc(O)cc8)sc8cc(O)ccc78)cc6)CC5)CC4)cc3C2=O)C(=O)N1 (stereo not drawn) [Compound 245, 2-(2,6-dioxo-3-piperidyl)-5-[4-[[1-[4-[6-hydroxy-2-(4-hydroxyphenyl)benzothiophen-3-yl]oxyphenyl]-4-piperidyl]methyl]piperazin-1-yl]isoindoline-1,3-dione] | – | – | – | 10 to 100 nM | 50 to 75% | 0.53 nM
10 | O=C1CCC(N2C(=O)c3ccc(N4CCN(CC5CCN(c6ccc(Oc7c(-c8ccc(Br)cc8)sc8cc(O)ccc78)cc6)CC5)CC4)cc3C2=O)C(=O)N1 (stereo not drawn) [Compound 228, 5-[4-[[1-[4-[2-(4-bromophenyl)-6-hydroxy-benzothiophen-3-yl]oxyphenyl]-4-pipendyl]methyl]piperazin-1-yl]-2-(2,6-dioxo-3-piperidyl)isoindoline-1,3-dione] | – | – | – | 1 to 10 nM | > 75% | 24.9 nM
11 | O=C1CCC(N2Cc3c(cc(F)c(N4CCN(C5CCN(CCOc6ccc(Oc7c(-c8ccc(Br)cc8)sc8cc(O)ccc78)cc6)CC5)CC4)c3F)C2=O)C(=O)N1 (stereo not drawn) [Compound 205, 3-[5-[4-[1-[2-[4-[2-(4-bromophenyl)-6-hydroxybenzothiophen-3-yl]oxyphenoxy]ethyl]-4-piperidyl]piperazin-1-yl]-4,6-difluoro-1-oxo-isoindolin-2-yl]piperidine-2,6-dione] | – | – | – | 10 to 100 nM | > 75% | 3.5 nM
